Assay results reported in patent US4683237A, “Fluoroalkyl esters of dihydrolysergic acid useful as 5HT2 receptor antagonists” (Eli Lilly and Company, priority 1985, dated 1987).
Counter-ions that a name gives are not always drawn.

Assays:
5HT2 receptors [1] = details: in words; mediated by 5HT2 receptors; Cohen I; cited from earlier work
5HT2 receptors [2] = details: in words; Garbrecht compounds; cited from earlier work
[3] = system: vascular alpha adrenergic, dopaminergic and histaminergic receptors; details: in words; Cohen I; cited from earlier work
5HT2 receptors [4] = biological target: T1, 5HT2 receptors (Rattus norvegicus, UniProt P14842); test: Antagonism of serotonin contraction in isolated rat external jugular vein (apparent antagonist dissociation constant); set-up: species or system Male Wistar rats; details: serotonin agonist, antagonist incubated one hour, 37° C., read-out: -log KB ± S.E. (apparent antagonist dissociation constant) (converted)
T1 construct: Contraction to serotonin was evaluated in the jugular vein since this tissue produces marked responses to serotonin in the absence of alpha receptors; from tissue; host or cells: external jugular vein of male Wistar rats
Protocol: An initial optimum resting force of 1 and 4 g was applied to the jugular vein and aorta, respectively. […] Exp. Ther., 205, 400 (1978). Alpha receptor antagonist activity was evaluated in the aorta.
The -log KB ±S.E. value obtained for 1-fluoromehtyl-2-fluoroethyl 1-isopropyl-9,10-dihydrolysergate maleate was 8.97±0.22.

T1 sequence (P14842 whole entry): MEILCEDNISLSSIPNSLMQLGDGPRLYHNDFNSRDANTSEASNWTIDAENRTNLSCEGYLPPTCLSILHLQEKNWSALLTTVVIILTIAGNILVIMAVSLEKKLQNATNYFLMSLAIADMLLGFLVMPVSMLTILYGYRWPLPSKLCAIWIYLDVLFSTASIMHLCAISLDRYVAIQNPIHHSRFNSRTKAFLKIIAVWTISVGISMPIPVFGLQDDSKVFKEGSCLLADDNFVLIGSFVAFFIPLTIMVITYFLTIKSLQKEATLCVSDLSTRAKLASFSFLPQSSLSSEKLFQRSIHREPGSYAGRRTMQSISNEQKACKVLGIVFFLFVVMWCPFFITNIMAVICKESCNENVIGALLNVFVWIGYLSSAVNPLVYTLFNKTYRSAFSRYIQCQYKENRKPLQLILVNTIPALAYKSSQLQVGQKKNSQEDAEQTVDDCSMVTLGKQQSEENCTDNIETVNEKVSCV

Row | SMILES | antagonism of vascular contraction to serotonin (5HT2 receptors [1]) | peripheral serotonin antagonist activity against 5HT2 receptors (5HT2 receptors [2]) | affinity for vascular alpha adrenergic, dopaminergic and histaminergic receptors [3] | Kb (5HT2 receptors [4])
1 | CC(O)C(C)OC(=O)[C@@H]1C[C@@H]2c3cccc4c3c(cn4C(C)C)C[C@H]2N(C)C1 (stereo partly drawn) [LY53857, 1-isopropyl-6-methyl-8β-(1-methyl-2-hydroxy)propoxycarbonyl-5R-ergoline] | potent antagonist of vascular contraction to serotonin | most active peripheral serotonin antagonist from Garbrecht | minimal affinity | –
2 | CC(C)n1cc2c3c(cccc31)[C@H]1C[C@@H](C(=O)OC(CF)CF)CN(C)[C@@H]1C2 [1-fluoromethyl-2-fluoroethyl-1-isopropyl-9,10-dihydrolysergate maleate] | – | – | – | 1.07 nM
